Measurements taken from patent EP4309500B1, “PEROXIDASE BASED BIOCONTROL AGENTS” (Acies Bio d.o.o., priority 2022, dated 2024).
Where two headings read alike, the source gives them in different places.

Key:
[1] = system: HydPOXs, HydPOX peroxidase without proregion (amino acids 117 to 659 of SEQ ID NO: 1), SEQ ID NO: 18; conditions: ABTS 0.025 - 5 mM, 6.45 nM peroxidase, 100 µM H2O2, 50 mM sodium acetate buffer pH 5.0, 25 °C (Example 12)
Procedure: (§1) The assays were performed in triplicates on a TECAN microtiter plate reader in a total of 200 µL. […] The oxidation reaction was read for 30 min at 25 °C.

[2] = system: LspPOX, peroxidase from Lyngbya sp. (strain PCC 8106), mature protein amino acids 117-661 of SEQ ID NO: 12; conditions: ABTS 0.025 - 5 mM, 6.45 nM peroxidase, 100 µM H2O2, 50 mM sodium acetate buffer pH 5.0, 25 °C (Example 12)
Procedure: as §1

[3] = system: LspPOX, peroxidase from Lyngbya sp. (strain PCC 8106), mature protein amino acids 117-661 of SEQ ID NO: 12; conditions: ABTS 0.025 - 10 mM, 10 nM peroxidase, H2O2, 50 mM phosphate buffer pH 6.0, 25 °C (Example 4)
Procedure: (§2) The reaction in presence of H2O2 can be easily measured on microplate reader.
The oxidation reaction was read for 30 min at 25 °C. […] The concentration of the added H2O2 solution was 200 µM.

[4] = system: LspPOX, peroxidase from Lyngbya sp. (strain PCC 8106), mature protein amino acids 117-661 of SEQ ID NO: 12; conditions: ABTS 0.025 - 10 mM, 10 nM peroxidase, 100 µM H2O2, 50 mM phosphate buffer pH 6.0, 25 °C, optimized fitting (Example 4.1)
Procedure: as §2
The oxidation reaction was read for 30 min at 25 °C.

[5] = system: OkePOXs, functional fragment of OkePOX heme peroxidase from Okeania hirsuta (amino acids 117 to 659 of SEQ ID NO: 11), SEQ ID NO: 25 or 27; conditions: KI 0.03 - 4 mM, 0.1 mM H2O2, 100 µM thymol blue, 1 µg/ml peroxidase
Procedure: (§3) The bacterial peroxidases (HydPOX, HydPOXs, OkePOXs) were compared to LpoPOX and LspPOX under these modified conditions.
(§4) The enzymatic reactions were performed at room temperature for 30 min in clear flat-bottomed microplate wells containing 200 µl 0.1 M phosphate buffer pH 7.2, 100 µM thymol blue, 1 µg/ml of recombinant bacterial peroxidase (or commercial LpoPOX as defined in SEQ ID NO: 16), H2O2 and a reducing agent such as I^- (general assay setup).
(§5) Kinetic constants were calculated using a nonlinear regression fitting curve (Figure 9A). […] For this reason, K0.5 values are used indicating the substrate concentration at which half maximal velocity/half-saturation is achieved.

[6] = system: HydPOXs, HydPOX peroxidase without proregion (amino acids 117 to 659 of SEQ ID NO: 1), SEQ ID NO: 18; conditions: KI 0.03 - 4 mM, 0.1 mM H2O2, 100 µM thymol blue, 1 µg/ml peroxidase, 0.1 M phosphate buffer pH 7.2, room temperature (Example 13)
Procedure: as §3, §4, §5

[7] = target: T1, LpoPOX, bovine lactoperoxidase, commercial protein, SEQ ID NO: 16 (lacks the propeptide region) (Bos taurus, UniProt P80025); experiment: Thymol blue assay (halogenation assay), kinetics at 0.1 mM H2O2 (Example 13); type: biochemical; conditions: KI 0.03 - 4 mM, 0.1 mM H2O2, 100 µM thymol blue, 1 µg/ml peroxidase
T1 construct: purchased
Procedure: as §3, §4, §5

[8] = system: LspPOX, peroxidase from Lyngbya sp. (strain PCC 8106), mature protein amino acids 117-661 of SEQ ID NO: 12; experiment: as above; type: biochemical, Lyngbya sp. PCC 8106; conditions: KI 0.03 - 4 mM, 0.1 mM H2O2, 100 µM thymol blue, 1 µg/ml peroxidase
Procedure: as §3, §4, §5

[9] = 0.1 M phosphate buffer pH 7.2, room temperature (Example 13)
[10] = 0.1 M phosphate buffer pH 7.2, room temperature, sigmoidal fitting (Example 13), 30 min, read-out: K0.5

Structure (SMILES)	kcat [1] [s^1]	Km [2] [µM]	kcat [2] [s^1]	Km [3] [µM]	kcat [3]	Km [4] [µM]	kcat [4] [s⁻¹]	kcat [5, 9] [s⁻¹]	kcat/K0.5 [5, 9] [M⁻¹ s⁻¹]	Km ([5]; read-out: K0.5, 0.1 M phosphate buffer pH 7.2, room temperature, sigmoidal fitting (Example 13), 30 min) [µM]	kcat [6] [s⁻¹]	kcat/K0.5 [6] [M⁻¹ s⁻¹]	kcat [7, 9] [s⁻¹]	kcat/K0.5 [7, 9] [M⁻¹ s⁻¹]	Km [7, 10] [µM]	kcat [8, 9] [s⁻¹]	kcat/K0.5 [8, 9] [M⁻¹ s⁻¹]	Km [8, 10] [µM]
CCn1c(=NN=c2sc3cc(S(=O)(=O)O)ccc3n2CC)sc2cc(S(=O)(=O)O)ccc21 [ABTS, 2,2'-azino-bis (3-ethylbenzothiazoline-6-sulfonic acid)]	95	1090	57	237	7,45 s^-1	180	6.3											
[I-].[K+] [KI, potassium iodide]								13.7	118600	120	10.6	85100	16.5	12500	1320	14.7	10600	1390
